Entries after “also recorded” stand apart in the source; their conditions may differ.
Legend:
[1] = Franz Diffusion Cell, CBD flux from monolithic adhesive patch through human cadaver skin; type: in vitro ADME; details: monolithic patches: Vistanex LM 5% or 10% CBD, DuroTak 87-2516 10% CBD, BIO PSA 7-4302 5% CBD (FIG. 7)
Procedure: Formulations of monolithic patches were prepared by solubilizing CBD in different adhesives and CBD transdermal flux was performed through human cadaver skin using Franz Diffusion Cell method. We found the highest transdermal flux of CBD from a formulation that comprises PIB adhesive and 10% CBD.
A monolithic transdermal device 40 is constructed using a matrix 44 of pure CBD and three different adhesives. A first device 40 includes a PE/PET backing and a matrix 44 comprising 95 percent Vistanex) LM polyisobutylene adhesive by weight of matrix 44 mixed with 5 percent substantially pure CBD by weight of matrix 44. A second device is similarly constructed, but the amount of CBD in the matrix 44 is 10 percent by weight of the matrix 44, and the amount of Vistanex LM is 90 percent by weight of the matrix 44. A third patch is constructed using a DuroTak 87-2516 adhesive in an amount of 90 percent by weight of matrix 44 and 10 percent CBD by weight of matrix 44, and a fourth patch is constructed using a BIO PSA 7-4302 adhesive in an amount of 95 percent by weight of matrix 44 and 5 percent CBD by weight of matrix 44.

[2] = Franz Diffusion Cell, CBD flux from reservoir transdermal device through human cadaver epidermis; type: in vitro ADME
Procedure: The effects of using a hydrophobic, porous membrane versus a hydrophilic, porous membrane (such as membrane 24) in reservoir transdermal device 20 are studied in this example. A mixture is formed by dissolving CBD powder in ethanol to yield a solution comprising 10 percent by weight CBD and 90 percent by weight ethanol. The backing 22 is an occlusive backing film (PE/PET from 3M). Hydroxy ethyl cellulose is added to the solution to yield a thixotropic preparation 27. A volume of 300 μL of the preparation is placed in the reservoir 26.
The skin adhesive 30 is a BIO PSA 7-4301 adhesive coated to a thickness of 15 g/m^2 on side 36 of membrane 24. An overlay adhesive patch is placed over the reservoir which forms an island in the middle. The overlay assures adhesion of the reservoir to the skin. The device 20 is contacted with a human cadaver epidermis, and diffusion through the epidermis is measured using the Franz Diffusion Cell method.
In a first run, membrane 24 is a Lydall® Evopor™ 5E02A, hydrophilic, microporous membrane (of 0.2 μm pore size). In a second run, the device 20 is constructed similarly, but membrane 24 is a hydrophobic Lydall® Solupor™ 7P03A porous membrane.
The reservoir device 20 of Example 1 is used, but instead of using ethanol alone as the liquid carrier, a mixture of ethanol and water is used wherein the ethanol comprises 70 percent by weight of the ethanol/water mixture, and water comprises 30 percent by weight of the ethanol/water mixture. The amount of CBD by weight of the combination of CBD and ethanol/water is 5 percent, and the amount of ethanol/water is 91.5 percent. The gelling agent is hydroxyethylcellulose, which is present in an amount of about 3.5% by weight of the preparation 27. […]
The device 20 is contacted with a human cadaver epidermis, and diffusion through the epidermis is measured using the Franz Diffusion Cell method. In a first run, the hydrophilic, porous membrane 24 of Example 1 is used. In a second run, the membrane 24 is omitted so that CBD diffuses directly through the skin adhesive 30.
This example is conducted using three reservoir transdermal devices such as those of Example 1, with each having the hydrophilic, porous membrane described therein. In each case, the preparation includes a mixture of CBD and a liquid carrier with ten (10) percent CBD by weight of the CBD/liquid carrier mixture. Three runs are conducted, each with a device that includes a different liquid carrier in its preparation 27: 1, 2 propylene glycol, PEG-300, and oleic acid. Diffusion through a human cadaver epidermis is measured using the Franz Diffusion Method.
This example is similar to Example 3, except that an ethanol carrier is also tested. As stated above, FIG. 6 is a graph depicting the cumulative flux (μg/cm^2) of CBD through a human cadaver epidermis over a six hour period from solutions comprising ten (10) percent by weight CBD and 90 percent by weight of one of four liquid carriers.

[3] = 10% CBD / 90% liquid carrier, six hour period (FIG. 6)

C=C(C)[C@@H]1CCC(C)=C[C@H]1c1c(O)cc(CCCCC)cc1O [CBD, Cannabidiol]
transdermal flux of CBD, PIB (Vistanex LM) adhesive / 10% CBD relative to the other monolithic formulations [1]: superior; also recorded: highest
permeability of CBD through the skin, with versus without membrane 24 ([2]; 5% CBD in ethanol/water 70/30, hydrophilic porous membrane used or omitted (FIG. 4)): the same
cumulative flux of CBD, hydrophilic membrane device versus hydrophobic membrane device ([2]; 10% CBD / 90% ethanol, hydrophilic Evopor 5E02A membrane, after about 9 hours (FIG. 3)): significantly exceeds
rate of transfer of CBD through the skin, oleic acid versus 1,2 propylene glycol or PEG-300 ([2]; 10% CBD / 90% liquid carrier, hydrophilic membrane, six hour period (FIG. 5)): significantly better
transfer of CBD through the skin, ethanol relative to 1,2 propylene glycol and PEG-300 [2, 3]: superior
transfer of CBD through the skin, oleic acid relative to ethanol, 1,2 propylene glycol and PEG-300 [2, 3]: superior
expected daily dose, reservoir device relative to monolithic patch of the same skin contact area ([2]; 20 cm^2 skin contact area): six times higher
cumulative flux of cannabidiol (CBD) ([2]; reservoir device, 5% by weight CBD and 70% by weight ethanol liquid carrier, at 12 hours): 110 micrograms/cm^2
cumulative flux of cannabidiol (CBD) ([2]; reservoir device, 5% by weight CBD and 70% by weight ethanol liquid carrier, at 24 hours): 300 micrograms/cm^2
cumulative flux of CBD, asymptotic value ([2]; reservoir device, 10% CBD / 90% ethanol, hydrophobic Solupor 7P03A porous membrane (FIG. 3)): about 300 μg/cm^2
cumulative flux of cannabidiol (CBD) ([2]; reservoir device, 10% by weight CBD and 90% by weight ethanol liquid carrier, hydrophilic porous membrane, at 7 hours): 150 micrograms/cm^2
cumulative flux of cannabidiol (CBD) ([2]; reservoir device, 10% by weight CBD and 90% by weight ethanol liquid carrier, hydrophilic porous membrane, at 17 hours): 700 micrograms/cm^2
cumulative flux of cannabidiol (CBD) ([2]; reservoir device, 10% by weight CBD and 90% by weight oleic acid, over six hours): 180 micrograms/cm^2
cumulative flux of cannabidiol (CBD) ([2]; reservoir device, ethanol liquid carrier, over 6 hours): 70 micrograms/cm^2
transdermal delivery of CBD from saturated ethanol solution versus monolithic patch ([2]; reservoir patch formulation): significantly higher
